Results as given in US12540143B2, “Methods and compositions for targeted protein degradation” (Ranok Therapeutics (Hangzhou) Co. Ltd., priority 2019, dated 2026).
Counter-ions that a name gives are not always drawn. Like-named read-outs stand apart in the source and are kept apart here. Blank lines part the entries; values can stand above or below the compound they belong to.

Tests used:
[1] = biological target: T1, BRD4 (Homo sapiens, UniProt O60885); experiment: BRD4 Degradation Flow Cytometry Assay in MV4-11 cells; assay type: cell-based; conditions: MV4-11 cells; for Percentage BRD4 degradation vs untreated: 24 hr, highest degradation percentage observed at concentrations between 40-1000 nM
T1 construct: endogenous in cells; host or cells: MV4-11
Method: Protein Degradation Flow Cytometry
(§1) MV4-11 cells were plated in a 24-well tissue culture plate at a density of 350,000 cells/450 μL/well and incubated in 37° C./5% CO2 for 1 hr. Cells were then treated with compounds at various concentrations and incubated in 37° C./5% CO2 for 24 hr. Cells were harvested, washed once, counted and 200 μL of 1% paraformaldehyde/PBS was added and incubated for 15 min at room temperature. 200 μL of 1×PBS/0.4% Triton X-100 was added and incubated for 15 min at 4° C. Cells were washed three times and resuspended in 50 μL of 1×PBS/0.2% Triton X-100. 2 μL/10^6 cells of anti-BRD4 antibody (ABCAM, #128874) was added and mixed by pipetting up and down. Cells were incubated for 30 min at room temperature in the dark, washed three times and resuspended in 50 μL of 1×PBS/0.2% Triton X-100. Goat anti-rabbit IgG H&L antibody (1:2000 dilution) was added and mixed by pipetting up and down and incubated for 30 min at room temperature in the dark. Finally, cells were washed three times and resuspended in 200 μL of PBS for flow cytometric analysis.

[2] = tested on: MV4-11 cells; experiment: MV4-11 Cytotoxicity Assay; assay type: cell-based, human; conditions: 72 hr, CCK-8, read-out: MV4-11 cytotoxicity
[3] = biological target: T2, BRD2 (Homo sapiens, UniProt P25440); experiment: BET Protein Family Degradation Flow Cytometry Assay (BRD2) in MV4-11 cells; assay type: cell-based; conditions: 24 hr
T2 construct: endogenous in cells; host or cells: MV4-11
Method: as §1
(§2) Similar western blotting experiments of for BRD2 and BRD3 were performed in MV4-11 cells using anti-BRD2 (Cell Signaling Technology, #139690) and anti-BRD3 (Cell Signaling Technology, #50818).

[4] = biological target: T3, BRD3 (Homo sapiens, UniProt Q15059); experiment: BET Protein Family Degradation Flow Cytometry Assay (BRD3) in MV4-11 cells; assay type: cell-based; conditions: 24 hr
T3 construct: endogenous in cells; host or cells: MV4-11
Method: as §1, §2

T2 sequence (P25440 whole entry): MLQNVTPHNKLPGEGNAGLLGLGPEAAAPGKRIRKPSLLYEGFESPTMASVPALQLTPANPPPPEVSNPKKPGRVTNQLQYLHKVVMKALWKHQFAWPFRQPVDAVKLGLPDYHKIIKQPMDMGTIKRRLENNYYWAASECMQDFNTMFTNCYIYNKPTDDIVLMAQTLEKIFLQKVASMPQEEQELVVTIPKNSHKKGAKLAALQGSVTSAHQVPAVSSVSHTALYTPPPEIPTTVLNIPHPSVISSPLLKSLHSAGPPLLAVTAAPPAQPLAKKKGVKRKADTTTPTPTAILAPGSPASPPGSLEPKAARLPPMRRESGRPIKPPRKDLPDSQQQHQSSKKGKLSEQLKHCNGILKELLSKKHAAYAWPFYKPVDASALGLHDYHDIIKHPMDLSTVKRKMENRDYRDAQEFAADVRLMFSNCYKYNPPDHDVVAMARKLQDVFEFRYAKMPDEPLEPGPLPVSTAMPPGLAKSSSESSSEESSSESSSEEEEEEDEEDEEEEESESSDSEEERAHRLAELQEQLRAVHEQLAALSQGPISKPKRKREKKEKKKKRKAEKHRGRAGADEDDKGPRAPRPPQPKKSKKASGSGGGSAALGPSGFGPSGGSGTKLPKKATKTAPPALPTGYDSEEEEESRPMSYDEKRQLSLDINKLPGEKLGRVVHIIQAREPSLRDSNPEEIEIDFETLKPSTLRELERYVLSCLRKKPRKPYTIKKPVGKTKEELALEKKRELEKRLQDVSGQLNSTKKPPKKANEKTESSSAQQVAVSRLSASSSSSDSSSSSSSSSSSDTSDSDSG
T3 sequence (Q15059 whole entry): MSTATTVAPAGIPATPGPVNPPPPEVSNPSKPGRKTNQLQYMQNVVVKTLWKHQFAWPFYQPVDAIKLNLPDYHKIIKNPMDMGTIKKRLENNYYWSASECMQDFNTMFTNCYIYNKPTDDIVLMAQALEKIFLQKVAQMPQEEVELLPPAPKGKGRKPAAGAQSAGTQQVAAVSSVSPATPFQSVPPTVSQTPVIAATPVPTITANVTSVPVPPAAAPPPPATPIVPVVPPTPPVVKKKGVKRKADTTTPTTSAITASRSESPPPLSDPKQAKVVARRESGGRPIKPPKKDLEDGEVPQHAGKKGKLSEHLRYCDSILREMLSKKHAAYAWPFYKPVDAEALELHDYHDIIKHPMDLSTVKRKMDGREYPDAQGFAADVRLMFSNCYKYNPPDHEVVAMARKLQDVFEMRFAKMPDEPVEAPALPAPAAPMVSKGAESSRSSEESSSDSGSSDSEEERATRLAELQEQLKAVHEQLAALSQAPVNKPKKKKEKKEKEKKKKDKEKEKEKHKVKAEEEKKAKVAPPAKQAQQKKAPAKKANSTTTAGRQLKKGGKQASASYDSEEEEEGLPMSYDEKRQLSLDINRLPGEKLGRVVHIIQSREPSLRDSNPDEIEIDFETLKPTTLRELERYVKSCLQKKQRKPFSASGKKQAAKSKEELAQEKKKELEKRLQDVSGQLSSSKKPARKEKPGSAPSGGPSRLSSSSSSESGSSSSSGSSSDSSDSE

Structure (SMILES): CCc1cc(-c2nnc(O)n2-c2ccc(CN3CCN(CC4CCN(C(=O)C[C@@H]5N=C(c6ccc(Cl)cc6)c6c(sc(C)c6C)-n6c(C)nnc65)CC4)CC3)cc2)c(O)cc1O [Compound 1, 2-((6S)-4-(4-chlorophenyl)-2,3,9-trimethyl-6H-thieno[3,2-f][1,2,4]triazolo[4,3-a][1,4]diazepin-6-yl)-1-(4-((4-(4-(3-(5-ethyl-2,4-dihydroxyphenyl)-5-hydroxy-4H-1,2,4-triazol-4-yl)benzyl)piperazin-1-yl)methyl)piperidin-1-yl)ethanone]
Percentage BRD4 degradation vs untreated [1]: A (Degradation > 50%)

Percentage BRD4 degradation vs untreated [1]: B (10% < Degradation = 10-50%)
Structure (SMILES): Cc1cc(-c2nnc(O)n2-c2ccc(CN3CCN(CC4CCN(C(=O)C[C@@H]5N=C(c6ccc(Cl)cc6)c6c(sc(C)c6C)-n6c(C)nnc65)CC4)CC3)cc2)c(O)cc1O [Compound 9, 2-((6S)-4-(4-chlorophenyl)-2,3,9-trimethyl-6H-thieno[3,2-f][1,2,4]triazolo[4,3-a][1,4]diazepin-6-yl)-1-(4-((4-(4-(3-(2,4-dihydroxy-5-methylphenyl)-5-hydroxy-4H-1,2,4-triazol-4-yl)benzyl)piperazin-1-yl)methyl)piperidin-1-yl)ethanone, trifluoroacetic acid]
IC50 ([2]; Homo sapiens, MV4-11): < 100 nM

Percentage BRD4 degradation vs untreated [1]: C (Degradation < 10%)
Structure (SMILES): Cc1sc2c(c1C)C(c1ccc(Cl)cc1)=N[C@@H](CC(=O)NCCc1ccc(-n3c(O)nnc3-c3cc(C(C)C)c(O)cc3O)cc1)c1nnc(C)n1-2 [Compound 39, 2-((6S)-4-(4-chlorophenyl)-2,3,9-trimethyl-6H-thieno[3,2-f][1,2,4]triazolo[4,3-a][1,4]diazepin-6-yl)-N-(4-(3-(2,4-dihydroxy-5-isopropylphenyl)-5-hydroxy-4H-1,2,4-triazol-4-yl)phenethyl)acetamide]
IC50 ([2]; Homo sapiens, MV4-11): < 100 nM

Percentage BRD4 degradation vs untreated [1]: A (Degradation > 50%)
Structure (SMILES): Cc1sc2c(c1C)C(c1ccc(Cl)cc1)=N[C@@H](CC(=O)NCC(=O)NCC1CCN(C(=O)C3CCN(Cc4ccc(-n5c(O)nnc5-c5cc(C(C)C)c(O)cc5O)cc4)CC3)CC1)c1nnc(C)n1-2 [Compound 46, (S)-2-(4-(4-chlorophenyl)-2,3,9-trimethyl-6H-thieno[3,2-f][1,2,4]triazolo[4,3-a][1,4]diazepin-6-yl)-N-(2-(((1-(1-(4-(3-(2,4-dihydroxy-5-isopropylphenyl)-5-hydroxy-4H-1,2,4-triazol-4-yl)benzyl)piperidine-4-carbonyl)piperidin-4-yl)methyl)amino)-2-oxoethyl)acetamide, trifluoroacetic acid]
IC50 ([2]; Homo sapiens, MV4-11): < 100 nM

Structure (SMILES): CCN(CC)CCNC(=O)c1nnc(-c2cc(C(C)C)c(O)cc2O)n1-c1ccc(CN2CCN(CC3CCN(C(=O)C[C@@H]4N=C(c5ccc(Cl)cc5)c5c(sc(C)c5C)-n5c(C)nnc54)CC3)CC2)cc1 [Compound 118, (S)-4-(4-((4-((1-(2-(4-(4-chlorophenyl)-2,3,9-trimethyl-6H-thieno[3,2-f][1,2,4]triazolo[4,3-a][1,4]diazepin-6-yl)acetyl)piperidin-4-yl)methyl)piperazin-1-yl)methyl)phenyl)-N-(2-(diethylamino)ethyl)-5-(2,4-dihydroxy-5-isopropylphenyl)-4H-1,2,4-triazole-3-carboxamide, trifluoroacetic acid]
IC50 ([2]; Homo sapiens, MV4-11): < 100 nM

Structure (SMILES): Cc1sc2c(c1C)C(c1ccc(Cl)cc1)=N[C@@H](CC(=O)N1CCC(CN3CCN(Cc4ccc(-n5c(C(=O)NC(C)C)nnc5-c5ccc(O)cc5O)cc4)CC3)CC1)c1nnc(C)n1-2 [Compound 119, (S)-4-(4-((4-((1-(2-(4-(4-chlorophenyl)-2,3,9-trimethyl-6H-thieno[3,2-f][1,2,4]triazolo[4,3-a][1,4]diazepin-6-yl)acetyl)piperidin-4-yl)methyl)piperazin-1-yl)methyl)phenyl)-5-(2,4-dihydroxyphenyl)-N-isopropyl-4H-1,2,4-triazole-3-carboxamide, trifluoroacetic acid]
IC50 ([2]; Homo sapiens, MV4-11): < 100 nM

Structure (SMILES): CCc1cc(-c2nnc(C(N)=O)n2-c2ccc(CN3CCN(CC4CCN(C(=O)C[C@@H]5N=C(c6ccc(Cl)cc6)c6c(sc(C)c6C)-n6c(C)nnc65)CC4)CC3)cc2)c(O)cc1O [Compound 120, (S)-4-(4-((4-((1-(2-(4-(4-chlorophenyl)-2,3,9-trimethyl-6H-thieno[3,2-f][1,2,4]triazolo[4,3-a][1,4]diazepin-6-yl)acetyl)piperidin-4-yl)methyl)piperazin-1-yl)methyl)phenyl)-5-(5-ethyl-2,4-dihydroxyphenyl)-4H-1,2,4-triazole-3-carboxamide hydrochloride]
IC50 [2]: < 100 nM

Structure (SMILES): CCc1cc(-c2nnc(C(N)=O)n2-c2ccc(CN3CCN(CC4CCN(C(=O)C[C@@H]5N=C(c6ccc(Cl)cc6)c6c(sc(C)c6C)-n6c(C)nnc65)CC4)CC3)cc2)c(O)cc1O [Compound 121, (S)-4-(4-((4-((1-(2-(4-(4-chlorophenyl)-2,3,9-trimethyl-6H-thieno[3,2-f][1,2,4]triazolo[4,3-a][1,4]diazepin-6-yl)acetyl)piperidin-4-yl)methyl)piperazin-1-yl)methyl)phenyl)-5-(5-ethyl-2,4-dihydroxyphenyl)-4H-1,2,4-triazole-3-carboxamide hydrochloride]
IC50 [2]: < 100 nM

Structure (SMILES): CCCc1cc(-c2nnc(C(=O)NCCN3CCCCC3)n2-c2ccc(CN3CCN(CC4CCN(C(=O)C[C@@H]5N=C(c6ccc(Cl)cc6)c6c(sc(C)c6C)-n6c(C)nnc65)CC4)CC3)cc2)c(O)cc1O [Compound 123, (S)-4-(4-((4-((1-(2-(4-(4-chlorophenyl)-2,3,9-trimethyl-6H-thieno[3,2-f][1,2,4]triazolo[4,3-a][1,4]diazepin-6-yl)acetyl)piperidin-4-yl)methyl)piperazin-1-yl)methyl)phenyl)-5-(2,4-dihydroxy-5-propylphenyl)-N-(2-(piperidin-1-yl)ethyl)-4H-1,2,4-triazole-3-carboxamide, trifluoroacetic acid]
IC50 ([2]; Homo sapiens, MV4-11): < 100 nM

Structure (SMILES): Cc1cc(-c2nnc(C(=O)NCCN3CCCCC3)n2-c2ccc(CN3CCN(CC4CCN(C(=O)C[C@@H]5N=C(c6ccc(Cl)cc6)c6c(sc(C)c6C)-n6c(C)nnc65)CC4)CC3)cc2)c(O)cc1O [Compound 124, (S)-4-(4-((4-((1-(2-(4-(4-chlorophenyl)-2,3,9-trimethyl-6H-thieno[3,2-f][1,2,4]triazolo[4,3-a][1,4]diazepin-6-yl)acetyl)piperidin-4-yl)methyl)piperazin-1-yl)methyl)phenyl)-5-(2,4-dihydroxy-5-methylphenyl)-N-(2-(piperidin-1-yl)ethyl)-4H-1,2,4-triazole-3-carboxamide, trifluoroacetic acid]
IC50 ([2]; Homo sapiens, MV4-11): < 100 nM

Structure (SMILES): CCNC(=O)c1noc(-c2cc(C(C)C)c(O)cc2O)c1-c1ccc(CN2CCN(CC3CCN(C(=O)C[C@@H]4N=C(c5ccc(Cl)cc5)c5c(sc(C)c5C)-n5c(C)nnc54)CC3)CC2)cc1 [Compound 126, (S)-4-(4-((4-((1-(2-(4-(4-chlorophenyl)-2,3,9-trimethyl-6H-thieno[3,2-f][1,2,4]triazolo[4,3-a][1,4]diazepin-6-yl)acetyl)piperidin-4-yl)methyl)piperazin-1-yl)methyl)phenyl)-5-(2,4-dihydroxy-5-isopropylphenyl)-N-ethylisoxazole-3-carboxamide hydrochloride]
IC50 ([2]; Homo sapiens, MV4-11): < 100 nM

Percentage BRD4 degradation vs untreated [1]: C (Degradation < 10%)
Structure (SMILES): CC(=O)N1CCC(CN2CCN(Cc3ccc(-n4c(O)nnc4-c4cc(C(C)C)c(O)cc4O)cc3)CC2)CC1 [HSP90 binder, 1-(4-((4-(4-(3-(2,4-dihydroxy-5-isopropylphenyl)-5-hydroxy-4H-1,2,4-triazol-4-yl)benzyl)piperazin-1-yl)methyl)piperidin-1-yl)ethan-1-one, reference compound]
BRD4 degradation (in words) ([1]; flow cytometry): no substantial BRD4 degradation was observed

Structure (SMILES): Cc1sc2c(c1C)C(c1ccc(Cl)cc1)=N[C@@H](CC(=O)NCCCCNC(=O)COc1cccc3c1C(=O)N(C1CCC(=O)NC1=O)C3=O)c1nnc(C)n1-2 (some centres unmarked) [dBET1]
BRD2 (% of control) ([3]; 3 nM): 96.4 % of control
BRD2 (% of control) ([3]; 10 nM): 94.9 % of control
BRD2 (% of control) ([3]; 30 nM): 55.1 % of control
BRD2 (% of control) ([3]; 100 nM): 9.3 % of control
BRD2 (% of control) ([3]; 300 nM): 0.5 % of control
BRD3 (% of control) ([4]; 3 nM): 89.7 % of control
BRD3 (% of control) ([4]; 10 nM): 43.2 % of control
BRD3 (% of control) ([4]; 30 nM): 14.5 % of control
BRD3 (% of control) ([4]; 100 nM): 1.4 % of control
BRD3 (% of control) ([4]; 300 nM): 0.3 % of control
